21 compounds from ChEMBL document CHEMBL5584345, “Discovery of Novel 2-Aminopyridine-Based and 2-Aminopyrimidine-Based Derivatives as Potent CDK/HDAC Dual Inhibitors for the Treatment of Refractory Solid Tumors and Hematological Malignancies” (J Med Chem, 2024) can be followed below.

The target in one test is Histone deacetylase 4 (Homo sapiens, UniProt P56524). The experiment in a line: Inhibition of human recombinant HDAC4 using Ac-Leu-Gly-Lys(Tfa)-AMC as substrate incubated for 24 hrs by fluorescence based Envision plate reader analysis.
Sequence of Histone deacetylase 4 (P56524 whole entry): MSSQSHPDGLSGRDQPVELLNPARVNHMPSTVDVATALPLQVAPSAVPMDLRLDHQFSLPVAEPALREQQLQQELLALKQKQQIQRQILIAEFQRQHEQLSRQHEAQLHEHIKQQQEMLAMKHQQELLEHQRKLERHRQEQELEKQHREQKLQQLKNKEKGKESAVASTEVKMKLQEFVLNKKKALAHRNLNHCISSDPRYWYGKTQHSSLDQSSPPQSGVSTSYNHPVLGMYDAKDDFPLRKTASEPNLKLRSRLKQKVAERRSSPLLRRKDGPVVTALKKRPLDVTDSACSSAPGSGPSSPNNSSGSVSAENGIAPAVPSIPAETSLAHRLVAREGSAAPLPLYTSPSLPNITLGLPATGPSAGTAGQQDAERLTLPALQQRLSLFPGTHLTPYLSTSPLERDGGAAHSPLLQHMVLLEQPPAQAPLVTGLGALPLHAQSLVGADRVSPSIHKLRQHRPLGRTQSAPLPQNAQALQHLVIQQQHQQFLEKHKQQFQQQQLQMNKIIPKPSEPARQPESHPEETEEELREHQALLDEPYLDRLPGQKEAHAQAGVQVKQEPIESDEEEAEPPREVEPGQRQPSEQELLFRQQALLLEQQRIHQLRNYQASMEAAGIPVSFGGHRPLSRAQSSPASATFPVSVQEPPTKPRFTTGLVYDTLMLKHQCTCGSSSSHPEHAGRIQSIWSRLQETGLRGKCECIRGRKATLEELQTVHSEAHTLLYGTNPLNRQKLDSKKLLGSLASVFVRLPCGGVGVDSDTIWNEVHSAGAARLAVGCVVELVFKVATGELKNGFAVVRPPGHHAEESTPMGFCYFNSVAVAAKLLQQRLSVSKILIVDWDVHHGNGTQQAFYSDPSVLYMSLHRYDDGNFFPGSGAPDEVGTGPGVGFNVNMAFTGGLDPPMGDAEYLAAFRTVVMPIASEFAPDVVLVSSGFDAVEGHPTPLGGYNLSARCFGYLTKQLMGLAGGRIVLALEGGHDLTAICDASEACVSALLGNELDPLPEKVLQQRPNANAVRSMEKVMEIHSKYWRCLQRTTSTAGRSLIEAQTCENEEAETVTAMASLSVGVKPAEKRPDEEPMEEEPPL
Test [1] addresses Cyclin-dependent kinase 7 (Homo sapiens, UniProt P50613).
Description: Inhibition of CDK7 (unknown origin) using ULight 4EBP1 peptide as substrate incubated for 2 hrs in presence of ATP by FRET assay
Test [2] concerns the target Receptor-type tyrosine-protein kinase FLT3 (Homo sapiens, UniProt P36888). The experiment in a line: Inhibition of FLT3 (unknown origin).
For test [3], the target named is Interleukin-1 receptor-associated kinase 4 (Homo sapiens, UniProt Q9NWZ3). The test can be described thus: Inhibition of IRAK4 (unknown origin).
Test [4] has as its target Ribosomal protein S6 kinase beta-1 (Homo sapiens, UniProt P23443). The experiment in a line: Inhibition of P70S6K (unknown origin).
For test [5], the target named is Serine/threonine-protein kinase 17B (Homo sapiens, UniProt O94768). The experiment in a line: Inhibition of DRAK2 (unknown origin).
Test [6] has as its target Tyrosine-protein kinase BTK (Homo sapiens, UniProt Q06187). The test can be described thus: Inhibition of BTK (unknown origin).
The target in test [7] is Serine/threonine-protein kinase pim-1 (Homo sapiens, UniProt P11309). The experiment in a line: Inhibition of PIM1 (unknown origin).
Another test has as its target Aurora kinase A (Homo sapiens, UniProt O14965). The test can be described thus: Inhibition of AurorA (unknown origin).
Test [8] deals with Tyrosine-protein kinase JAK3 (Homo sapiens, UniProt P52333). The experiment in a line: Inhibition of JAK3 (unknown origin).
Sequence of Tyrosine-protein kinase JAK3 (P52333 whole entry): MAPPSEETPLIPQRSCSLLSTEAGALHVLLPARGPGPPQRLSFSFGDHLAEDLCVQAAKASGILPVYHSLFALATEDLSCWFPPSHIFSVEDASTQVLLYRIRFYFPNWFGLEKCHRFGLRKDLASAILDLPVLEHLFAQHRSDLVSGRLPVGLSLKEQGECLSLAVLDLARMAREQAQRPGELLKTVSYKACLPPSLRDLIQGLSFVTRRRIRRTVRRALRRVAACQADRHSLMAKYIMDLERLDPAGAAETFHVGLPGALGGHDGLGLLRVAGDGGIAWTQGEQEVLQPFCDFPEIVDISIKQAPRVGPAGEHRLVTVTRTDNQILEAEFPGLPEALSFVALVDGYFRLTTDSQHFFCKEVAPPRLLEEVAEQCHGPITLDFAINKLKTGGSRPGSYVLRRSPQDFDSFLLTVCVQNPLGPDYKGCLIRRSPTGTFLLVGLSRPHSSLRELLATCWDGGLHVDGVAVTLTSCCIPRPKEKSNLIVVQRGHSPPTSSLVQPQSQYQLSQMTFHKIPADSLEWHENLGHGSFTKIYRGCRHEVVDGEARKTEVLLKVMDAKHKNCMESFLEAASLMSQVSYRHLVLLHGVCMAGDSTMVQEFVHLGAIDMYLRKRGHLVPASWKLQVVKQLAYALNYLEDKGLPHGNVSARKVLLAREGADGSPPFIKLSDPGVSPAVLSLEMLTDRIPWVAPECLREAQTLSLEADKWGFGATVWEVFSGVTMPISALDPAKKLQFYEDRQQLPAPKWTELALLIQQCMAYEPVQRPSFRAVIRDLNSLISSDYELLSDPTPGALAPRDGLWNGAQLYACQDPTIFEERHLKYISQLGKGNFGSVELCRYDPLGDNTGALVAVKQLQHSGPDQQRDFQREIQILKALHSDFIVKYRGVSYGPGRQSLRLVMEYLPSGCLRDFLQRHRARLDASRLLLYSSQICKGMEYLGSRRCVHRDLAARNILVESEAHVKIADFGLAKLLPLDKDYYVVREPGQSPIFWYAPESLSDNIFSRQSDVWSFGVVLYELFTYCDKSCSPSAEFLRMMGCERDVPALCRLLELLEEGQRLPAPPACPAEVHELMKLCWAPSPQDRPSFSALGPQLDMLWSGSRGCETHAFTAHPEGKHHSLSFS
Test [9] deals with Epidermal growth factor receptor (Homo sapiens, UniProt P00533). The experiment in a line: Inhibition of EGFR (unknown origin).
Test [10] concerns the target Serine/threonine-protein kinase Chk1 (Homo sapiens, UniProt O14757). The test can be described thus: Inhibition of CHK1 (unknown origin).
For test [11], the target named is Cyclin-dependent kinase 9 (Homo sapiens, UniProt P50750).
Sequence of Cyclin-dependent kinase 9 (P50750 whole entry): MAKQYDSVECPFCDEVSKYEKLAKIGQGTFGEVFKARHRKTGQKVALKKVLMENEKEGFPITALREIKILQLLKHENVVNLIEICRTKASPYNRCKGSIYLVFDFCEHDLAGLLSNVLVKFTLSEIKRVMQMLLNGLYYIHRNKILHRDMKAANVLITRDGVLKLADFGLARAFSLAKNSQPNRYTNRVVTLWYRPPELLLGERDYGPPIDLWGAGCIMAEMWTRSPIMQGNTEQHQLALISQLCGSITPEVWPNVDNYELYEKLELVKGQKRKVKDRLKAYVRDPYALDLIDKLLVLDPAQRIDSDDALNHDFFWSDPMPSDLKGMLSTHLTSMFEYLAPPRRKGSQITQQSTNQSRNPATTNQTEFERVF
Description: Inhibition of CDK9 (unknown origin) using ULight 4EBP1 peptide as substrate incubated for 2 hrs in presence of ATP by FRET assay
A further test has as its target Histone deacetylase 1 (Homo sapiens, UniProt Q13547).
For a further test, the target named is Histone deacetylase 3 (Homo sapiens, UniProt O15379).
Sequence of Histone deacetylase 3 (O15379 whole entry): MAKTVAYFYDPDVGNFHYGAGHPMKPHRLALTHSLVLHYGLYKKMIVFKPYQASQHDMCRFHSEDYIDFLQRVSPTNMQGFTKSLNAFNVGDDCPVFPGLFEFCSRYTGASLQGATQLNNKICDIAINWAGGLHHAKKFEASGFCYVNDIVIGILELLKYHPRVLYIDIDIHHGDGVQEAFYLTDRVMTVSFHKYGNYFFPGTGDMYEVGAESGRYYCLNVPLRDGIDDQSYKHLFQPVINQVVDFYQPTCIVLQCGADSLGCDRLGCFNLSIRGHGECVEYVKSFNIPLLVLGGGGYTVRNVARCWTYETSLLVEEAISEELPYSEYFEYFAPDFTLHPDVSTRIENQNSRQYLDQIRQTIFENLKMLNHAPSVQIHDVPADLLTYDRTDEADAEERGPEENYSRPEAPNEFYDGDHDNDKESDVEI
Test [12] concerns the target Protein deacetylase HDAC6 (Homo sapiens, UniProt Q9UBN7).
Description: Inhibition of human recombinant HDAC6 using Boc-Lys(eta-acetyl)-AMC as substrate incubated for 24 hrs by fluorescence based Envision plate reader analysis
The test system of another test is KG-1. The experiment in a line: Antiproliferative activity against human KG-1 cells incubated for 72 hrs by celltiter-glo luminescent assay. As to conditions: KG-1, 72 h. (In general: In ATP-based viability assays light output follows the ATP content of the culture.)
For test [13], the target named is Cyclin-dependent kinase 2 (Homo sapiens, UniProt P24941). The test can be described thus: Inhibition of CDK2 (unknown origin) using ULight 4EBP1 peptide as substrate incubated for 2 hrs in presence of ATP by FRET assay.
Another test concerns HT-29. The experiment in a line: Antiproliferative activity against human HT-29 cells incubated for 72 hrs by celltiter-glo luminescent assay. The note with it: HT-29, 72 h.
The test system of the next test is PC-9. The experiment in a line: Antiproliferative activity against human PC-9 cells incubated for 72 hrs by celltiter-glo luminescent assay. The note with it: PC-9, 72 h.
The subject of another test is CESS. The test can be described thus: Antiproliferative activity against human CESS cells incubated for 72 hrs by celltiter-glo luminescent assay.
Another test relates to Rec1. The experiment in a line: Antiproliferative activity against human REC1 cells incubated for 72 hrs by celltiter-glo luminescent assay. As to conditions: Rec1, 72 h.
For test [14], the system named is MV4-11. The test can be described thus: Antiproliferative activity against human MV4-11 cells incubated for 72 hrs by celltiter-glo luminescent assay. As to conditions: MV4-11, 72 h.
In a further test the test system is A549. The experiment in a line: Antiproliferative activity against human A549 cells incubated for 72 hrs by celltiter-glo luminescent assay. As to conditions: A549, 72 h. Type of test: functional, cell-based.
In test [15] the test system is MV4-11. The experiment in a line: Antitumor activity against human MV4-11 cells xenografted in female nu/nu mouse assessed as test to control ratio at 50 mg/kg, sc bid for 19 days. Type of test: functional. The note with it: time 19 day. (A xenograft is tissue or cells of one species grown in another, often human tumour cells in immunodeficient mice.)

Sequence of Cyclin-dependent kinase 7 (P50613 whole entry): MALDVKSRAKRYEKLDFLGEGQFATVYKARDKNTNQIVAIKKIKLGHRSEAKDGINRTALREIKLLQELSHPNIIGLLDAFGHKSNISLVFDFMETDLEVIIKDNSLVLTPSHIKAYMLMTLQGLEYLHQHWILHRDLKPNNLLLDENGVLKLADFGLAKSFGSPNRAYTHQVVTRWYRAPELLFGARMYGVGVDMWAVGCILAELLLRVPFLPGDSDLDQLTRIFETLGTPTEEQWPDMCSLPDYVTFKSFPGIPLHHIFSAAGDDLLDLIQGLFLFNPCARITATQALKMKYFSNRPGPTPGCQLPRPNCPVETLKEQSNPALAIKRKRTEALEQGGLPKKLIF
Sequence of Receptor-type tyrosine-protein kinase FLT3 (P36888 whole entry): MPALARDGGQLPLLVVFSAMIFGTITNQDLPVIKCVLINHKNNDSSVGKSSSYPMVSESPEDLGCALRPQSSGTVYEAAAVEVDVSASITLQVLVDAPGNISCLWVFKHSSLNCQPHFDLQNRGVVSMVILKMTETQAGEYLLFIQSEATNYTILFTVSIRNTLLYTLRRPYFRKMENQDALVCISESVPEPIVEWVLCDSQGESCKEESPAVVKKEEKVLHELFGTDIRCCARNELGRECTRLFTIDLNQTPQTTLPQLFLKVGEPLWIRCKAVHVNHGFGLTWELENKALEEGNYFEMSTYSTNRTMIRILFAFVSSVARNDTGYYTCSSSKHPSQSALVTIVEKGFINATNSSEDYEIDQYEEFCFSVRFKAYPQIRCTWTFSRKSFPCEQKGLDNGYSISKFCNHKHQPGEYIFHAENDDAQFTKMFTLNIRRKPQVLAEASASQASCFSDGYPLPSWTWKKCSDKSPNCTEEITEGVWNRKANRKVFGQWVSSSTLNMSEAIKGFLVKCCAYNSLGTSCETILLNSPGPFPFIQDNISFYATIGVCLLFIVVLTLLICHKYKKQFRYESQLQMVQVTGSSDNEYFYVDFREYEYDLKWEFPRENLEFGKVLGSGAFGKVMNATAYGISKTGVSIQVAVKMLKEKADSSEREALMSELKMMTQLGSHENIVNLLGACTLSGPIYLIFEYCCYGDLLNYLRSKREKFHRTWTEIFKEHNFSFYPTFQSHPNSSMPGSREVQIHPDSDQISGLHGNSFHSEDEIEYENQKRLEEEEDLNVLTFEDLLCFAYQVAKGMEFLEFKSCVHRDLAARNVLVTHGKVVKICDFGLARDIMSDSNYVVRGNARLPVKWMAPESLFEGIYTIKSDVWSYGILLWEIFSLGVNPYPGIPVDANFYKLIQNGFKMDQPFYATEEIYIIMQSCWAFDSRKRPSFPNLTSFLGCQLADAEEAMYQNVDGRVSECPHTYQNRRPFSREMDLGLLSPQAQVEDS
Sequence of Histone deacetylase 1 (Q13547 whole entry): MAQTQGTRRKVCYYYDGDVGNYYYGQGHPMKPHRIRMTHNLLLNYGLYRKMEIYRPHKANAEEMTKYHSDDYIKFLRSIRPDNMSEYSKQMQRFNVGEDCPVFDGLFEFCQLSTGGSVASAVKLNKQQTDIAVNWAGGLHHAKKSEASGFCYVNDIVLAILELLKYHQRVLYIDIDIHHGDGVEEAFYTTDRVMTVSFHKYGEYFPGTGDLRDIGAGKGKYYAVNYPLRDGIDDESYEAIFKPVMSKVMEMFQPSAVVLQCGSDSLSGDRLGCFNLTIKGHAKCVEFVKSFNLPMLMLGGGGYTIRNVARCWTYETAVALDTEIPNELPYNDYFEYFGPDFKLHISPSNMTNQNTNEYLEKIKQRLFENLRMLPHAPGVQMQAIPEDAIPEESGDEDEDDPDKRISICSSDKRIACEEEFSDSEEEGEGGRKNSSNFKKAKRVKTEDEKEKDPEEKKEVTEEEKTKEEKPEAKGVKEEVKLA
Description for Histone deacetylase 1: Inhibition of human recombinant HDAC1 using Ac-Lys-Tyr-Lys(eta-acetyl)-AMC as substrate incubated for 24 hrs by fluorescence based Envision plate reader analysis

Turning to `O=C(CCCCCCn1cc(Nc2ncc(Cl)c(-c3cnc4ccccn34)n2)cn1)NO`, the IC50 (usually the concentration at which inhibition is half-maximal) on Histone deacetylase 4 was above 10 µM; in test [1], 2.81 µM.
The like results for `COc1cc(F)ccc1-c1cc(Nc2ccc(NC(=O)CCCCCCC(=O)NO)cc2)ncc1F` were, in that order, above 10 µM and above 10 µM.
`N#CC1(CNc2cccc(-c3cc(Nc4cnn(Cc5ccc(C(=O)Nc6ccccc6N)cc5)c4)ncc3Cl)n2)CCOCC1`: the IC50 in test [2] is above 10000 nM; on Histone deacetylase 4, above 20 µM; in test [3], above 10 µM; in test [4], above 10000 nM; in test [5], above 10 µM; in test [6], above 10 µM. In addition, the IC50 in test [7] is above 10 µM; against Aurora kinase A it was above 10 µM; in test [8], above 10000 nM; in test [9], above 10 µM; in [10], above 10 µM.
As for `COc1cc(F)ccc1-c1cc(Nc2cnn(CCCCCCC(=O)NO)c2)ncc1F`, the IC50 (on Histone deacetylase 4; in test [1]) was above 10 µM in each case.
On to `N#CC1(CNc2cccc(-c3cc(Nc4cnn(Cc5ccc(C(=O)NO)cc5)c4)ncc3Cl)n2)CCOCC1`, for which the IC50 is 1.08 µM at Histone deacetylase 4 and above 10 µM in test [1].
For the compound `N#CC1(CNc2cccc(-c3cc(Nc4cnn(CCCCCCC(=O)Nc5ccccc5N)c4)ncc3Cl)n2)CCOCC1`, the IC50 at Histone deacetylase 4 is above 20 µM; in test [1] it was above 10 µM.
Turning to `N#CC1(CNc2cccc(-c3cc(Nc4cnn(CCCCCC(=O)NO)c4)ncc3Cl)n2)CCOCC1`, the concentration for half-maximal inhibition (IC50) is 2.5 µM on Histone deacetylase 4 and above 10 µM in [1].
For the compound `O=C(/C=C/c1ccc(Nc2ncc(Cl)c(OC3CCCCC3)n2)cc1)NO`, the IC50 in test [11] is 7890 nM; against Histone deacetylase 1, above 10 µM; on Histone deacetylase 3 it was 7.21 µM; in test [12], 646 nM.
In turn, `O=C(CCCCCCC(=O)Nc1ccccc1)NO` [VORINOSTAT] had an IC50 in the test on KG-1 of 790 nM.
Consider `N#CC1(CNc2cccc(-c3cc(Nc4cnn(CCCCCCC(=O)NO)c4)ncc3Cl)n2)CCOCC1`, for which the IC50 was 4.4 µM on Histone deacetylase 4 and above 10 µM in test [1].
On to `CCCNNC(=O)c1ccc(Cn2cc(Nc3ncc(Cl)c(-c4cnc5ccccn45)n3)cn2)cc1`, for which the IC50 was 30.4 nM in [2]; above 20 µM at Histone deacetylase 4; 0.973 µM in test [1]; above 10 µM in test [3]; 371 nM in test [4]; above 10 µM in test [5]. The IC50 in test [6] was 9.13 µM; in [7], above 10 µM; against Aurora kinase A it was above 10 µM; in test [8], 2380 nM; in [9], above 10 µM; in [10], above 10 µM.
Take `CCCNNC(=O)CCCCCCn1cc(Nc2ncc(Cl)c(-c3cnc4ccccn34)n2)cn1`: the IC50 on Histone deacetylase 4 is above 20 µM; in test [13], above 10 µM; in test [1], above 10 µM.
For the compound `O=C(CCCCCn1cc(Nc2ncc(Cl)c(-c3cnc4ccccn34)n2)cn1)NO`, the half-inhibitory concentration (IC50) is above 10 µM on Histone deacetylase 4 and 0.566 µM in test [1].
For the compound `COc1cc(F)ccc1-c1cc(Nc2ccc(NC(=O)CCCCCCC(=O)Nc3ccccc3N)cc2)ncc1F`, the figures for the IC50 (at Histone deacetylase 4; in test [1]) were above 20 µM and above 10 µM, respectively.
Regarding `CCCNNC(=O)CCCCCn1cc(Nc2ncc(Cl)c(-c3cnc4ccc(-c5ccccc5)cn34)n2)cn1`, the figures for the IC50 (at Histone deacetylase 4; in [1]) were above 20 µM and above 10 µM, respectively.
Turning to `COc1cc(F)ccc1-c1cc(Nc2cnn(CCCCCC(=O)NO)c2)ncc1F`, the IC50 (at Histone deacetylase 4; in test [1]) was above 10 µM throughout.
With `CCCNNC(=O)c1ccc(Cn2cc(Nc3ncc(Cl)c(-c4cnc5ccc(-c6ccccc6)cn45)n3)cn2)cc1`, the IC50 on Histone deacetylase 4 is above 20 µM; in [13], above 10 µM; in [1], above 10 µM.
In the case of `CCCNNC(=O)CCCCCn1cc(Nc2ncc(Cl)c(-c3cnc4ccccn34)n2)cn1`, the IC50 was above 20 µM at Histone deacetylase 4, above 10 µM in test [13] and above 10 µM in test [1].
Take `COc1cc(F)ccc1-c1cc(Nc2ccc(/C=C/C(=O)Nc3ccccc3N)cc2)ncc1F`: the IC50 is 68.4 nM in test [11], above 20 µM against Histone deacetylase 1, 3.55 µM at Histone deacetylase 3 and above 20000 nM in [12].
On to `COC[C@@H](C)N[C@H]1CC[C@H](Nc2cc(-c3cccc(NCC4(C#N)CCOCC4)n3)c(Cl)cn2)CC1`, for which the IC50 with HT-29 is 20 nM; in [13], above 10 µM; in test [11] it was 4.1 nM; in [1], above 10 µM; in the test with PC-9, 30 nM; in the test on KG-1, 20 nM. Moreover, the IC50 in the test with CESS worked out at 10 nM; in the test on Rec1 it was 30 nM; in the test on MV4-11 [14], 3 nM; with A549, 5.78 µM.
For the compound `Nc1ccn([C@@H]2O[C@H](CO)[C@@H](O)[C@@H]2O)c(=O)n1` [CYTARABINE], the T/C (usually the ratio of treated to control) in the test on MV4-11 [15] came to 33.41%.
